These compounds were tested on monkey ES cell line transfected with an αMHC promoter-driven GFP gene (assay: Chemical screening: GFP fluorometry for cardiac differentiation of monkey ES cells). Conditions: 3 to 10 μM in early phase, alone or in combination with KY02111 (10 μM in late phase); FIG. 1b.
Format: cell-based, cynomolgus monkey
Method: Pluripotent stem cells were cultured in culture media to which the test compounds were added in different concentrations (0.3 μM, 1 μM, 3 μM and 10 μM) in early phase and late phase of differentiation of the cells. Cells from the culture were subjected to GFP fluorometry in accordance with the cardiac differentiation protocol shown in FIG. 1a. Besides the test compounds, 10 μM KY02111 was included in the culture media for the late phase differentiation. The intensity of GFP fluorescence determined in the cells from the control culture, which was cultured with no test compound other than KY02111, was assigned to one.
The scheme of chemical screening is illustrated in FIG. 1a. Compounds were screened for the ability of increasing GFP fluorescence compared with the control (KY02111 alone) using a monkey ES cell line transfected with an αMHC promoter-driven GFP gene (Minami et al., Cell Reports 2, 1448-1460, 2012, which is incorporated herein by reference). The ES cell line was derived from a monkey ES cell line (cynomolgus monkey CMK6.4) by transfecting the cells with a vector which expresses green fluorescent protein (GFP) under control by a promoter of α-MHC gene (a marker of cardiac differentiation). The cells were plated at 4.0×10^5 cells per well in 6 well plates (Asahi Glass/5816-006: Ezview culture plates) and cultured for nine days in an IMDM-based medium for cardiac differentiation (200 ml IMDM medium (Sigma 13390), with 50 ml calf serum (GIBCO 10099-141), 2.5 ml MEM non-essential amino acid solution (Sigma M7145), 2.5 ml penicillin-streptomycin ([…]), 2.5 ml 200 mM L-glutamine, 2 ul 2-mercaptoethanol (Sigma M7522), and 255 ul 5N NaOH). Each test compound was added to the medium at different concentrations in the early phase (day 0 to day 3) and the late phase (day 4 to day 7) of cardiac differentiation. Cells obtained from the culture on day 9 were subjected to GFP fluorometry with a Metamorph imaging system. […]

| SMILES | increase of cardiac differentiation |
| --- | --- |
| CC(=O)O[C@@]12C[C@@H](C)[C@@]3(O)[C@@H](C=C(CO)C[C@]4(O)C(=O)C(C)=C[C@@H]34)[C@@H]1C2(C)C [Prostratin] | three- to eight-fold |

Same assay, conditions: test compound 0.3 μM in Early phase (day 0 to day 3); 10 μM KY02111 in late phase; GFP fluorometry day 9

| SMILES | intensity of GFP fluorescence relative to control culture (KY02111 only, assigned to one) |
| --- | --- |
| Cc1ccc(-n2nc(C(C)(C)C)cc2NC(=O)Nc2ccc(OCCN3CCOCC3)c3ccccc23)cc1 [BIRB796] | 1.2 |
| Cc1cc(Nc2ncc3c(n2)N(C)C(=O)N(c2cc(NC(=O)c4cccc(C(F)(F)F)c4)ccc2C)C3)n(C)n1 [SC-1] | 0.16 |
| OCCn1cc(-c2cnc3nnn(Cc4ccc5ncccc5c4)c3n2)cn1 [PF042I7903] | 1.02 |
| CC(=O)O[C@@]12C[C@@H](C)[C@@]3(O)[C@@H](C=C(CO)C[C@]4(O)C(=O)C(C)=C[C@@H]34)[C@@H]1C2(C)C [Prostratin] | 0.79 |
| N#C/C(=C/c1ccc(O)c(O)c1)C(=O)NCc1ccccc1 [AG490] | 1.5 |
| NC(=O)c1ccc(-c2nc(-c3ccccn3)c(-c3ccc4c(c3)OCO4)[nH]2)cc1 [5B431542] | 0.61 |

Same assay, conditions: test compound 0.3 μM in Late phase (day 4 to day 7) with 10 μM KY02111; GFP fluorometry day 9

| SMILES | intensity of GFP fluorescence relative to control culture (KY02111 only, assigned to one) |
| --- | --- |
| Cc1ccc(-n2nc(C(C)(C)C)cc2NC(=O)Nc2ccc(OCCN3CCOCC3)c3ccccc23)cc1 [BIRB796] | 1.05 |
| Cc1cc(Nc2ncc3c(n2)N(C)C(=O)N(c2cc(NC(=O)c4cccc(C(F)(F)F)c4)ccc2C)C3)n(C)n1 [SC-1] | 0.14 |
| OCCn1cc(-c2cnc3nnn(Cc4ccc5ncccc5c4)c3n2)cn1 [PF042I7903] | 1.09 |
| CC(=O)O[C@@]12C[C@@H](C)[C@@]3(O)[C@@H](C=C(CO)C[C@]4(O)C(=O)C(C)=C[C@@H]34)[C@@H]1C2(C)C [Prostratin] | 0.72 |
| N#C/C(=C/c1ccc(O)c(O)c1)C(=O)NCc1ccccc1 [AG490] | 0.92 |
| NC(=O)c1ccc(-c2nc(-c3ccccn3)c(-c3ccc4c(c3)OCO4)[nH]2)cc1 [5B431542] | 1.2 |

Same assay, conditions: test compound 1 μM in Early phase (day 0 to day 3); 10 μM KY02111 in late phase; GFP fluorometry day 9

| SMILES | intensity of GFP fluorescence relative to control culture (KY02111 only, assigned to one) |
| --- | --- |
| Cc1ccc(-n2nc(C(C)(C)C)cc2NC(=O)Nc2ccc(OCCN3CCOCC3)c3ccccc23)cc1 [BIRB796] | 0.9 |
| Cc1cc(Nc2ncc3c(n2)N(C)C(=O)N(c2cc(NC(=O)c4cccc(C(F)(F)F)c4)ccc2C)C3)n(C)n1 [SC-1] | 0 |
| OCCn1cc(-c2cnc3nnn(Cc4ccc5ncccc5c4)c3n2)cn1 [PF042I7903] | 0.99 |
| CC(=O)O[C@@]12C[C@@H](C)[C@@]3(O)[C@@H](C=C(CO)C[C@]4(O)C(=O)C(C)=C[C@@H]34)[C@@H]1C2(C)C [Prostratin] | 2.31 |
| N#C/C(=C/c1ccc(O)c(O)c1)C(=O)NCc1ccccc1 [AG490] | 0.59 |
| NC(=O)c1ccc(-c2nc(-c3ccccn3)c(-c3ccc4c(c3)OCO4)[nH]2)cc1 [5B431542] | 0.1 |

Same assay, conditions: test compound 1 μM in Late phase (day 4 to day 7) with 10 μM KY02111; GFP fluorometry day 9

| SMILES | intensity of GFP fluorescence relative to control culture (KY02111 only, assigned to one) |
| --- | --- |
| Cc1ccc(-n2nc(C(C)(C)C)cc2NC(=O)Nc2ccc(OCCN3CCOCC3)c3ccccc23)cc1 [BIRB796] | 0.81 |
| Cc1cc(Nc2ncc3c(n2)N(C)C(=O)N(c2cc(NC(=O)c4cccc(C(F)(F)F)c4)ccc2C)C3)n(C)n1 [SC-1] | 0 |
| OCCn1cc(-c2cnc3nnn(Cc4ccc5ncccc5c4)c3n2)cn1 [PF042I7903] | 1.3 |
| CC(=O)O[C@@]12C[C@@H](C)[C@@]3(O)[C@@H](C=C(CO)C[C@]4(O)C(=O)C(C)=C[C@@H]34)[C@@H]1C2(C)C [Prostratin] | 0.3 |
| N#C/C(=C/c1ccc(O)c(O)c1)C(=O)NCc1ccccc1 [AG490] | 1 |
| NC(=O)c1ccc(-c2nc(-c3ccccn3)c(-c3ccc4c(c3)OCO4)[nH]2)cc1 [5B431542] | 1.52 |

Same assay, conditions: test compound 3 μM in Early phase (day 0 to day 3); 10 μM KY02111 in late phase; GFP fluorometry day 9

| SMILES | intensity of GFP fluorescence relative to control culture (KY02111 only, assigned to one) |
| --- | --- |
| Cc1ccc(-n2nc(C(C)(C)C)cc2NC(=O)Nc2ccc(OCCN3CCOCC3)c3ccccc23)cc1 [BIRB796] | 0.95 |
| Cc1cc(Nc2ncc3c(n2)N(C)C(=O)N(c2cc(NC(=O)c4cccc(C(F)(F)F)c4)ccc2C)C3)n(C)n1 [SC-1] | 0 |
| OCCn1cc(-c2cnc3nnn(Cc4ccc5ncccc5c4)c3n2)cn1 [PF042I7903] | 0.91 |
| CC(=O)O[C@@]12C[C@@H](C)[C@@]3(O)[C@@H](C=C(CO)C[C@]4(O)C(=O)C(C)=C[C@@H]34)[C@@H]1C2(C)C [Prostratin] | 5.42 |
| N#C/C(=C/c1ccc(O)c(O)c1)C(=O)NCc1ccccc1 [AG490] | 0.79 |
| NC(=O)c1ccc(-c2nc(-c3ccccn3)c(-c3ccc4c(c3)OCO4)[nH]2)cc1 [5B431542] | 0 |

Same assay, conditions: test compound 3 μM in Late phase (day 4 to day 7) with 10 μM KY02111; GFP fluorometry day 9

| SMILES | intensity of GFP fluorescence relative to control culture (KY02111 only, assigned to one) |
| --- | --- |
| Cc1ccc(-n2nc(C(C)(C)C)cc2NC(=O)Nc2ccc(OCCN3CCOCC3)c3ccccc23)cc1 [BIRB796] | 0.55 |
| Cc1cc(Nc2ncc3c(n2)N(C)C(=O)N(c2cc(NC(=O)c4cccc(C(F)(F)F)c4)ccc2C)C3)n(C)n1 [SC-1] | 0 |
| OCCn1cc(-c2cnc3nnn(Cc4ccc5ncccc5c4)c3n2)cn1 [PF042I7903] | 0.82 |
| CC(=O)O[C@@]12C[C@@H](C)[C@@]3(O)[C@@H](C=C(CO)C[C@]4(O)C(=O)C(C)=C[C@@H]34)[C@@H]1C2(C)C [Prostratin] | 0.01 |
| N#C/C(=C/c1ccc(O)c(O)c1)C(=O)NCc1ccccc1 [AG490] | 1.1 |
| NC(=O)c1ccc(-c2nc(-c3ccccn3)c(-c3ccc4c(c3)OCO4)[nH]2)cc1 [5B431542] | 1.44 |

Same assay, conditions: test compound 10 μM in Early phase (day 0 to day 3); 10 μM KY02111 in late phase; GFP fluorometry day 9

| SMILES | intensity of GFP fluorescence relative to control culture (KY02111 only, assigned to one) |
| --- | --- |
| Cc1ccc(-n2nc(C(C)(C)C)cc2NC(=O)Nc2ccc(OCCN3CCOCC3)c3ccccc23)cc1 [BIRB796] | 0.08 |
| Cc1cc(Nc2ncc3c(n2)N(C)C(=O)N(c2cc(NC(=O)c4cccc(C(F)(F)F)c4)ccc2C)C3)n(C)n1 [SC-1] | 0 |
| OCCn1cc(-c2cnc3nnn(Cc4ccc5ncccc5c4)c3n2)cn1 [PF042I7903] | 0.62 |
| CC(=O)O[C@@]12C[C@@H](C)[C@@]3(O)[C@@H](C=C(CO)C[C@]4(O)C(=O)C(C)=C[C@@H]34)[C@@H]1C2(C)C [Prostratin] | 6.88 |
| N#C/C(=C/c1ccc(O)c(O)c1)C(=O)NCc1ccccc1 [AG490] | 0.72 |
| NC(=O)c1ccc(-c2nc(-c3ccccn3)c(-c3ccc4c(c3)OCO4)[nH]2)cc1 [5B431542] | 0 |

Same assay, conditions: test compound 10 μM in Late phase (day 4 to day 7) with 10 μM KY02111; GFP fluorometry day 9

| SMILES | intensity of GFP fluorescence relative to control culture (KY02111 only, assigned to one) |
| --- | --- |
| Cc1ccc(-n2nc(C(C)(C)C)cc2NC(=O)Nc2ccc(OCCN3CCOCC3)c3ccccc23)cc1 [BIRB796] | 0.29 |
| Cc1cc(Nc2ncc3c(n2)N(C)C(=O)N(c2cc(NC(=O)c4cccc(C(F)(F)F)c4)ccc2C)C3)n(C)n1 [SC-1] | 0 |
| OCCn1cc(-c2cnc3nnn(Cc4ccc5ncccc5c4)c3n2)cn1 [PF042I7903] | 0.78 |
| CC(=O)O[C@@]12C[C@@H](C)[C@@]3(O)[C@@H](C=C(CO)C[C@]4(O)C(=O)C(C)=C[C@@H]34)[C@@H]1C2(C)C [Prostratin] | 0 |
| N#C/C(=C/c1ccc(O)c(O)c1)C(=O)NCc1ccccc1 [AG490] | 1.33 |
| NC(=O)c1ccc(-c2nc(-c3ccccn3)c(-c3ccc4c(c3)OCO4)[nH]2)cc1 [5B431542] | 1.58 |

Same assay, conditions: under appropriate conditions; Table 1

| SMILES | cardiac differentiation (screening conclusion) |
| --- | --- |
| CC(=O)O[C@@]12C[C@@H](C)[C@@]3(O)[C@@H](C=C(CO)C[C@]4(O)C(=O)C(C)=C[C@@H]34)[C@@H]1C2(C)C [Prostratin] | promoted |
